Reference: patent US6737383B1, “Herbicidal oxadiazolidines” (priority 1999, dated 2004)

How the values were obtained:
bedstraw = assay: Test B pre/postemergence bedstraw; format: in vivo, Galium aparine
Procedure, shortened: (§1)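 Test chemicals in a non-phytotoxic solvent mixture with surfactant were sprayed preemergence onto planted seeds and postemergence onto plants 2 to 18 cm tall (1- to 4-leaf stage). After twelve to sixteen days in a greenhouse, injury was visually rated against untreated controls from 0 (no effect) to 10 (complete control).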

surinam grass = assay: Test B pre/postemergence surinam grass; format: in vivo, Brachiaria decumbens
Procedure, shortened: as §1

cocklebur = assay: Test B pre/postemergence cocklebur; format: in vivo, Xanthium strumarium
Procedure, shortened: as §1

corn = assay: Test B pre/postemergence corn; format: in vivo, Zea mays
Procedure, shortened: as §1

giant foxtail = assay: Test B pre/postemergence giant foxtail; format: in vivo, Setaria faberii
Procedure, shortened: as §1

pigweed = assay: Test B pre/postemergence pigweed; format: in vivo, Amaranthus retroflexus
Procedure, shortened: as §1

rape = assay: Test B pre/postemergence rape; format: in vivo, Brassica napus
Procedure, shortened: as §1

soybean = assay: Test B pre/postemergence soybean; format: in vivo, Glycine max
Procedure, shortened: as §1

sugar beet = assay: Test B pre/postemergence sugar beet; format: in vivo, Beta vulgaris
Procedure, shortened: as §1

velvetleaf = assay: Test B pre/postemergence velvetleaf; format: in vivo, Abutilon theophrasti
Procedure, shortened: as §1

wheat = assay: Test B pre/postemergence wheat; format: in vivo, Triticum aestivum
Procedure, shortened: as §1

wild oat = assay: Test B pre/postemergence wild oat; format: in vivo, Avena fatua
Procedure, shortened: as §1

purple nutsedge = assay: Test B pre/postemergence purple nutsedge; format: in vivo, Cyperus rotundus
Procedure, shortened: as §1

rice = assay: Test B flood test rice; format: in vivo, Oryza sativa; conditions: Pre-emergence
Procedure, shortened: (§2)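 Each value is a visual injury score relative to controls, with 10 meaning complete control and 0 no effect. Evaluation took place twelve to sixteen days after the 2-leaf-stage plants were treated and kept in the greenhouse.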

smallflower flatsedge = assay: Test B flood test smallflower flatsedge; format: in vivo, Cyperus difformis; conditions: Pre-emergence
Procedure, shortened: as §2

duck salad = assay: Test B flood test duck salad; format: in vivo, Heteranthera limosa; conditions: Pre-emergence
Procedure, shortened: as §2

[1] = Preemergence, Rate 62 g/ha, scale of 0 to 10 where 0 is no effect and 10 is complete control
[2] = Preemergence, Rate 500 g/ha, scale of 0 to 10 where 0 is no effect and 10 is complete control
[3] = Rate 62 g/ha, Postemergence, scale 0 to 10, 0 no effect, 10 complete control
[4] = Rate 125 g/ha, Postemergence, scale of 0 to 10 where 0 is no effect and 10 is complete control
[5] = Rate 250 g/ha, Postemergence, scale of 0 to 10 where 0 is no effect and 10 is complete control
[6] = Rate 500 g/ha, Postemergence, scale 0 to 10, 0 no effect, 10 complete control
[7] = Preemergence, Rate 250 g/ha, scale of 0 to 10 where 0 is no effect and 10 is complete control
[8] = Rate 1000 g/ha, scale 0 to 10 (0 no effect, 10 complete control)
[9] = Rate 125 g/ha, flood test species, scale 0 to 10 where 0 is no effect and 10 is complete control
[10] = Rate 250 g/ha, flood-test species, scale 0 to 10, 0 is no effect, 10 is complete control

CC(C)N(C(=O)n1oc(=O)n(CC2CCCC2)c1=O)c1ccc(F)cc1 [Compound 322]
6: Giant foxtail plant response rating (giant foxtail; [1]) | Redroot pigweed plant response rating (0 to 10 scale) (pigweed; Preemergence, Rate 125 g/ha) | Plant response rating, Redroot pigweed (pigweed; [6])
1: B. signalgrass plant response rating (surinam grass; [7]) | Plant response rating, Giant foxtail (giant foxtail; [5]) | Soybean plant response rating (soybean; [3])
9: Giant foxtail plant response rating (0 to 10 scale) (giant foxtail; Preemergence, Rate 125 g/ha) | Giant foxtail plant response rating (giant foxtail; [7])
8: Redroot pigweed plant response rating (pigweed; [7]) | Redroot pigweed plant response rating (pigweed; [2])
3: B. signalgrass plant response rating (surinam grass; [2]) | Plant response rating, B. signalgrass (surinam grass; [6]) | Redroot pigweed plant response rating (pigweed; [4]) | Plant response rating, Redroot pigweed (pigweed; [5]) | Soybean plant response rating (soybean; [4]) | Plant response rating, Wheat (wheat; [6]) | Wild oats plant response rating (wild oat; [2])
0: Bedstraw plant response rating (bedstraw; [1]) | Bedstraw plant response rating (0 to 10 scale) (bedstraw; Preemergence, Rate 125 g/ha) | Bedstraw plant response rating (bedstraw; [3]) | Bedstraw plant response rating (bedstraw; [4]) | B. signalgrass plant response rating (surinam grass; [1]) | B. signalgrass plant response rating (0 to 10 scale, 0 is no effect, 10 is complete control) (surinam grass; Preemergence, Rate 125 g/ha) | B. signalgrass plant response rating (surinam grass; [3]) | B. signalgrass plant response rating (surinam grass; [4]) | Plant response rating, B. signalgrass (surinam grass; [5]) | Cocklebur plant response rating (cocklebur; [1]) | Cocklebur plant response rating (0 to 10 scale) (cocklebur; Preemergence, Rate 125 g/ha) | Cocklebur plant response rating (cocklebur; [7]) | Cocklebur plant response rating (cocklebur; [3]) | Cocklebur plant response rating (cocklebur; [4]) | Plant response rating, Cocklebur (cocklebur; [5]) | Corn plant response rating (corn; [1]) | Corn plant response rating (0 to 10 scale) (corn; Preemergence, Rate 125 g/ha) | Corn plant response rating (corn; [7]) | Corn plant response rating (corn; [2]) | Corn plant response rating (corn; [3]) | Corn plant response rating (corn; [4]) | Plant response rating, Corn (corn; [5]) | Plant response rating, Corn (corn; [6]) | Giant foxtail plant response rating (giant foxtail; [3]) | Giant foxtail plant response rating (giant foxtail; [4]) | Redroot pigweed plant response rating (pigweed; [1]) | Rape plant response rating (rape; [1]) | Rape plant response rating (0 to 10 scale) (rape; Preemergence, Rate 125 g/ha) | Rape plant response rating (rape; [7]) | Rape plant response rating (rape; [3]) | Rape plant response rating (rape; [4]) | Plant response rating, Rape (rape; [5]) | Plant response rating, Rape (rape; [6]) | Soybean plant response rating (soybean; [1]) | Soybean plant response rating (0 to 10 scale) (soybean; Preemergence, Rate 125 g/ha) | Soybean plant response rating (soybean; [7]) | Soybean plant response rating (soybean; [2]) | Sugarbeets plant response rating (sugar beet; [1]) | Sugarbeets plant response rating (sugar beet; [3]) | Sugarbeets plant response rating (sugar beet; [4]) | Plant response rating, Sugarbeets (sugar beet; [5]) | Velvetleaf plant response rating (velvetleaf; [1]) | Velvetleaf plant response rating (0 to 10 scale) (velvetleaf; Preemergence, Rate 125 g/ha) | Velvetleaf plant response rating (velvetleaf; [7]) | Velvetleaf plant response rating (velvetleaf; [2]) | Velvetleaf plant response rating (velvetleaf; [3]) | Velvetleaf plant response rating (velvetleaf; [4]) | Plant response rating, Velvetleaf (velvetleaf; [5]) | Wheat plant response rating (wheat; [1]) | Wheat plant response rating (0 to 10 scale) (wheat; Preemergence, Rate 125 g/ha) | Wheat plant response rating (wheat; [7]) | Wheat plant response rating (wheat; [2]) | Wheat plant response rating (wheat; [3]) | Wheat plant response rating (wheat; [4]) | Plant response rating, Wheat (wheat; [5]) | Wild oats plant response rating (wild oat; [1]) | Wild oats plant response rating (0 to 10 scale) (wild oat; Preemergence, Rate 125 g/ha) | Wild oats plant response rating (wild oat; [3]) | Wild oats plant response rating (wild oat; [4]) | Plant response rating, Wild oats (wild oat; [5]) | Nutsedge plant response rating (purple nutsedge; [1]) | Nutsedge plant response rating (0 to 10 scale) (purple nutsedge; Preemergence, Rate 125 g/ha) | Nutsedge plant response rating (purple nutsedge; [7]) | Nutsedge plant response rating (purple nutsedge; [2]) | Nutsedge plant response rating (purple nutsedge; [3]) | Nutsedge plant response rating (purple nutsedge; [4]) | Plant response rating, Nutsedge (purple nutsedge; [5]) | Plant response rating, Nutsedge (purple nutsedge; [6]) | Rice plant response rating (rice; [8]) | Rice plant response rating (rice; [9]) | Rice plant response rating (rice; [10]) | S. Flatsedge plant response rating (smallflower flatsedge; [8]) | S. Flatsedge plant response rating (smallflower flatsedge; [9]) | S. Flatsedge plant response rating (smallflower flatsedge; [10]) | Ducksalad plant response rating (duck salad; [8]) | Ducksalad plant response rating (duck salad; [9]) | Ducksalad plant response rating (duck salad; [10])
2: Bedstraw plant response rating (bedstraw; [2]) | Redroot pigweed plant response rating (pigweed; [3]) | Rape plant response rating (rape; [2]) | Sugarbeets plant response rating (0 to 10 scale) (sugar beet; Preemergence, Rate 125 g/ha) | Sugarbeets plant response rating (sugar beet; [7]) | Plant response rating, Sugarbeets (sugar beet; [6]) | Plant response rating, Velvetleaf (velvetleaf; [6]) | Wild oats plant response rating (wild oat; [7]) | Plant response rating, Wild oats (wild oat; [6])
4: Plant response rating, Bedstraw (bedstraw; [5]) | Plant response rating, Bedstraw (bedstraw; [6]) | Cocklebur plant response rating (cocklebur; [2]) | Plant response rating, Cocklebur (cocklebur; [6]) | Plant response rating, Giant foxtail (giant foxtail; [6]) | Plant response rating, Soybean (soybean; [5]) | Sugarbeets plant response rating (sugar beet; [2])
5: Plant response rating, Soybean (soybean; [6])
10: Giant foxtail plant response rating (giant foxtail; [2])
